Measurements from US20260028354A1, “TETRAHYDRONAPHTHALENE DERIVATIVES AS ESTROGEN RECEPTOR DEGRADERS” (REGENT OF THE UNIVERSITY OF MICHIGAN, priority 2022, published 2026).

Experiment: Western blot analysis for "B" compounds
Assay type: cell-based
Conditions: read-out: Traditional Western Degradation Potency (DC50)
Outline: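 Target protein levels given as relative mean band intensity over GAPDH from scanned immunoblots. Lysates of treated cells in RIPA buffer, equalized by BCA, separated on 10% gels and transferred to PVDF.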

DC50	Compound
> 100 nM	O=C1CCC(N2C(=O)c3cc4c(cc3C2=O)CC2(C4)CN(C(=O)C3CCN(c4ccc([C@@H]5c6ccc(O)cc6CC[C@@H]5c5ccccc5)cc4)CC3)C2)C(=O)N1 (stereo partly drawn) [Compound B297, 2′-(2,6-dioxopiperidin-3-yl)-1-(1-(4-((1R,2S)-6-hydroxy-2-phenyl-1,2,3,4-tetrahydronaphthalen-1-yl)phenyl)piperidine-4-carbonyl)-5′,7′-dihydro-1′H-spiro[azetidine-3,6′-cyclopenta[f]isoindole]-1′,3′(2'H)-dione]
> 100 nM	Cn1cc(-c2ccc3c(c2)CC[C@H](c2ccccc2)[C@@H]3c2ccc(N3CCC4(CCN(C(=O)CN5Cc6cc7c(cc6C5)C(=O)N(C5CCC(=O)NC5=O)C7=O)CC4)CC3)cc2)cn1 (stereo partly drawn) [Compound B323, 2-(2,6-dioxopiperidin-3-yl)-6-(2-(9-(4-((1R,2S)-6-(1-methyl-1H-pyrazol-4-yl)-2-phenyl-1,2,3,4-tetrahydronaphthalen-1-yl)phenyl)-3,9-diazaspiro[5.5]undecan-3-yl)-2-oxoethyl)-6,7-dihydropyrrolo[3,4-f]isoindole-1,3(2H,5H)-dione]
> 100 nM	O=C1CCC(N2C(=O)c3cc4c(cc3C2=O)CN(CC2(F)CCN(C(=O)C3(F)CN(c5ccc([C@@H]6c7ccc(O)cc7CC[C@@H]6c6ccccc6)cc5)C3)CC2)C4)C(=O)N1 (stereo partly drawn) [Compound B265, 2-(2,6-dioxopiperidin-3-yl)-6-((4-fluoro-1-(3-fluoro-1-(4-((1R,2S)-6-hydroxy-2-phenyl-1,2,3,4-tetrahydronaphthalen-1-yl)phenyl)azetidine-3-carbonyl)piperidin-4-yl)methyl)-6,7-dihydropyrrolo[3,4-f]isoindole-1,3(2H,5H)-dione]
> 100 nM	O=C1CCC(N2C(=O)c3cc4c(cc3C2=O)CN(CC(=O)N2CC3(CC(Oc5ccc([C@@H]6c7ccc(O)cc7CC[C@@H]6c6ccccc6)cc5)C3)C2)C4)C(=O)N1 (stereo partly drawn) [Compound B276, 2-(2,6-dioxopiperidin-3-yl)-6-(2-(6-(4-((1R,2S)-6-hydroxy-2-phenyl-1,2,3,4-tetrahydronaphthalen-1-yl)phenoxy)-2-azaspiro[3.3]heptan-2-yl)-2-oxoethyl)-6,7-dihydropyrrolo[3,4-f]isoindole-1,3(2H,5H)-dione]
> 100 nM	O=C1CCC(N2C(=O)c3cc4c(cc3C2=O)CN(CC2(F)CN(CC3CCN(c5ccc([C@@H]6c7ccc(O)cc7CC[C@@H]6c6ccccc6)cc5)CC3)C2)C4)C(=O)N1 (stereo partly drawn) [Compound B271, 2-(2,6-dioxopiperidin-3-yl)-6-((3-fluoro-1-((1-(4-((1R,2S)-6-hydroxy-2-phenyl-1,2,3,4-tetrahydronaphthalen-1-yl)phenyl)piperidin-4-yl)methyl)azetidin-3-yl)methyl)-6,7-dihydropyrrolo[3,4-f]isoindole-1,3(2H,5H)-dione]
> 100 nM	O=C1CCC(N2C(=O)c3cc4c(cc3C2=O)CN(CC(=O)N2CCC3(CC2)CCN(c2ccc([C@H]5c6ccc(O)cc6CC[C@H]5c5ccccc5)cc2)CC3)C4)C(=O)N1 (stereo partly drawn) [Compound B180, 2-(2,6-dioxopiperidin-3-yl)-6-(2-(9-(4-((1S,2R)-6-hydroxy-2-phenyl-1,2,3,4-tetrahydronaphthalen-1-yl)phenyl)-3,9-diazaspiro[5.5]undecan-3-yl)-2-oxoethyl)-6,7-dihydropyrrolo[3,4-f]isoindole-1,3(2H,5H)-dione]
> 100 nM	O=C1CCC(N2C(=O)c3cc4c(cc3C2=O)CN(C(=O)[C@H]2CC[C@H](N3CC(Oc5ccc([C@@H]6c7ccc(O)cc7CC[C@@H]6c6ccccc6)cc5)C3)CC2)C4)C(=O)N1 (stereo partly drawn) [Compound B127, 2-(2,6-dioxopiperidin-3-yl)-6-((1S,4r)-4-(3-(4-((1R,2S)-6-hydroxy-2-phenyl-1,2,3,4-tetrahydronaphthalen-1-yl)phenoxy)azetidin-1-yl)cyclohexane-1-carbonyl)-6,7-dihydropyrrolo[3,4-f]isoindole-1,3(2H,5H)-dione]
10 to 100 nM	O=C1CCC(N2C(=O)c3cc4c(cc3C2=O)CN(C(=O)[C@H]2CC[C@H](N3CC(Nc5ccc([C@@H]6c7ccc(O)cc7CC[C@@H]6c6ccccc6)cc5)C3)CC2)C4)C(=O)N1 (stereo partly drawn) [Compound B128, 2-(2,6-dioxopiperidin-3-yl)-6-((1S,4r)-4-(3-((4-((1R,2S)-6-hydroxy-2-phenyl-1,2,3,4-tetrahydronaphthalen-1-yl)phenyl)amino)azetidin-1-yl)cyclohexane-1-carbonyl)-6,7-dihydropyrrolo[3,4-f]isoindole-1,3(2H,5H)-dione]
> 100 nM	O=C1CCC(N2C(=O)c3cc4c(cc3C2=O)CN(CC2CCN(C(=O)C3(F)CCN(c5ccc([C@@H]6c7ccc(O)cc7CC[C@@H]6c6ccccc6)cc5)CC3)CC2)C4)C(=O)N1 (stereo partly drawn) [Compound B269, 2-(2,6-dioxopiperidin-3-yl)-6-((1-(4-fluoro-1-(4-((1R,2S)-6-hydroxy-2-phenyl-1,2,3,4-tetrahydronaphthalen-1-yl)phenyl)piperidine-4-carbonyl)piperidin-4-yl)methyl)-6,7-dihydropyrrolo[3,4-f]isoindole-1,3(2H,5H)-dione]
> 100 nM	O=C1CCC(N2C(=O)c3cc4c(cc3C2=O)CN(C(=O)CN2CC3(CCN(c5ccc([C@@H]6c7ccc(O)cc7CC[C@@H]6c6ccccc6)cc5)CC3)C2)CCC4)C(=O)N1 (mixture of isomers) [Compound B260, 2-(2,6-dioxopiperidin-3-yl)-6-(2-(7-(4-((1R,2S)-6-hydroxy-2-phenyl-1,2,3,4-tetrahydronaphthalen-1-yl)phenyl)-2,7-diazaspiro[3.5]nonan-2-yl)acetyl)-6,7,8,9-tetrahydroazepino[3,4-f]isoindole-1,3(2H,5H)-dione]

Continued, compound first:

Compound	DC50
3-(6-((1R,4r)-4-(3-((4-((1R,2S)-6-hydroxy-2-phenyl-1,2,3,4- tetrahydronaphthalen-1-yl)phenyl)amino)azetidin-1- yl)cyclohexane-1-carbonyl)-1-oxo-3,5,6,7- tetrahydropyrrolo[3,4-f]isoindol-2(1H)-yl)pipcridinc-2,6-dionc [Compound B109]	< 10 nM
O=C1CCC(N2Cc3cc4c(cc3C2=O)CN(CC2CCN(c3ccc([C@@H]5c6ccc(O)cc6CC[C@@H]5c5ccccc5)cc3)CC2)C4)C(=O)N1 (mixture of isomers) [Compound B1, 3-(6-((1-(4-((1R,2S)-6-hydroxy-2-phenyl-1,2,3,4-tetrahydronaphthalen-1-yl)phenyl)piperidin-4-yl)methyl)-1-oxo-3,5,6,7-tetrahydropyrrolo[3,4-f]isoindol-2(1H)-yl)piperidine-2,6-dione]	> 100 nM
O=C1CCC(N2C(=O)c3cc4c(cc3C2=O)CN(C(=O)CN2CCC3(CC2)CCN(c2ccc([C@@H]5c6ccc(O)cc6CC[C@@H]5c5ccc(F)cc5)cc2)C3)C4)C(=O)N1 (mixture of isomers) [Compound B31, 2-(2,6-dioxopiperidin-3-yl)-6-(2-(2-(4-((1R,2S)-2-(4-fluorophenyl)-6-hydroxy-1,2,3,4-tetrahydronaphthalen-1-yl)phenyl)-2,8-diazaspiro[4.5]decan-8-yl)acetyl)-6,7-dihydropyrrolo[3,4-f]isoindole-1,3(2H,5H)-dione]	> 100 nM
O=C1CCC(N2C(=O)c3cc4c(cc3C2=O)CN(C(=O)CN2CCC3(CC2)CN(c2ccc([C@@H]5c6ccc(O)cc6CC[C@@H]5c5ccccc5)cc2)C3)C4)C(=O)N1 (mixture of isomers) [Compound B29, 2-(2,6-dioxopiperidin-3-yl)-6-(2-(2-(4-((1R,2S)-6-hydroxy-2-phenyl-1,2,3,4-tetrahydronaphthalen-1-yl)phenyl)-2,7-diazaspiro[3.5]nonan-7-yl)acetyl)-6,7-dihydropyrrolo[3,4-f]isoindole-1,3(2H,5H)-dione]	> 100 nM
O=C1CCC(N2C(=O)c3cc4c(cc3C2=O)CN(C2CN(CC3CCN(c5ccc([C@@H]6c7ccc(O)cc7CC[C@@H]6c6ccccc6)cc5)CC3)C2)C4)C(=O)N1 (stereo partly drawn) [Compound B65, 2-(2,6-dioxopiperidin-3-yl)-6-(1-((1-(4-((1R,2S)-6-hydroxy-2-phenyl-1,2,3,4-tetrahydronaphthalen-1-yl)phenyl)piperidin-4-yl)methyl)azetidin-3-yl)-6,7-dihydropyrrolo[3,4-f]isoindole-1,3(2H,5H)-dione]	> 100 nM
3-(6-((1S,4s)-4-(3-((4-((1R,2S)-6-hydroxy-2-phenyl-1,2,3,4- tetrahydronaphthalen-1-yl)phenyl)amino)azetidin-1- yl)cyclohexane-1-carbonyl)-1-oxo-3,5,6,7- tetrahydropyrrolo[3,4-f]isoindol-2(1H)-yl)piperidine-2,6-dione [Compound B116]	> 100 nM
O=C1CCC(N2C(=O)c3cc4c(cc3C2=O)CN(C2CCC(C(=O)N3CCN(c5ccc([C@@H]6c7ccc(O)cc7CC[C@@H]6c6ccccc6)cc5)CC3)CC2)C4)C(=O)N1 (stereo partly drawn) [Compound B77, 2-(2,6-dioxopiperidin-3-yl)-6-(4-(4-(4-((1R,2S)-6-hydroxy-2-phenyl-1,2,3,4-tetrahydronaphthalen-1-yl)phenyl)piperazine-1-carbonyl)cyclohexyl)-6,7-dihydropyrrolo[3,4-f]isoindole-1,3(2H,5H)-dione]	> 100 nM
O=C1CCC(N2C(=O)c3cc4c(cc3C2=O)CN(CC(=O)N2CCC3(CC2)CCN(c2ncc([C@H]5c6ccc(O)cc6CC[C@H]5c5ccccc5)cn2)CC3)C4)C(=O)N1 (mixture of isomers) [Compound B82, 2-(2,6-dioxopiperidin-3-yl)-6-(2-(9-(5-((1R,2R)-6-hydroxy-2-phenyl-1,2,3,4-tetrahydronaphthalen-1-yl)pyrimidin-2-yl)-3,9-diazaspiro[5.5]undecan-3-yl)-2-oxoethyl)-6,7-dihydropyrrolo[3,4-f]isoindole-1,3(2H,5H)-dione]	> 100 nM
O=C1CCC(N2C(=O)c3cc4c(cc3C2=O)CN(CC2CN(C(=O)C3CCN(c5ccc([C@@H]6c7ccc(O)cc7CC[C@@H]6c6ccccc6)cc5)CC3)C2)C4)C(=O)N1 (mixture of isomers) [Compound B10, 2-(2,6-dioxopiperidin-3-yl)-6-((1-(1-(4-((1R,2S)-6-hydroxy-2-phenyl-1,2,3,4-tetrahydronaphthalen-1-yl)phenyl)piperidine-4-carbonyl)azetidin-3-yl)methyl)-6,7-dihydropyrrolo[3,4-f]isoindole-1,3(2H,5H)-dione]	10 to 100 nM
